Experimental findings from patent US20250270180A1, “MEK INHIBITORS AND THERAPEUTIC USES THEREOF” (Immuneering Corporation, priority 2020, published 2025) are described below.

This assay concerns A549 pERK. Kind of assay: A549-pERK, 2 h (quantitative Western, Jess). It counts as cell-based. As to conditions: Homo sapiens, phospho:total ratio normalized to DMSO control. How it is done:
A549 or […] cells were treated in duplicate for two hours with compounds at varying concentrations. After two hours, the cells were lysed, snap frozen, and stored at −80° C. After storage, the lysate was quantified with the Bradford assay. Before the lysates were prepared to run on the Jess, the lysates were diluted to 1 mg/mL for pERK analysis and 1.5 mg/mL pMEK analysis using quantitative Western blotting. ERK and MEK phosphorylation levels were estimated by taking the ratio of phospho-protein to total protein and normalizing to the DMSO control. The results of this study are described in Tables 14-16.

For `CNS(=O)(=O)Nc1cccc(Cc2c(CNCC3CC3)c3ccc(OC(=O)N(C)C)cc3oc2=O)c1F` [Compound 26], the activity at 0.01 µM (A549, 2 h, 10 nM) came out at 94.2%.

Consider `CNS(=O)(=O)Nc1cccc(Cc2c(CNCc3ccncc3)c3ccc(OC(=O)N(C)C)cc3oc2=O)c1F` [Compound 29], for which the activity at 0.01 µM (A549, 2 h, 10 nM) was 96%.

Regarding `CNS(=O)(=O)Nc1cccc(Cc2c(CNc3ccccc3)c3ccc(OC(=O)N(C)C)cc3oc2=O)c1F` [Compound 30], for the setting “A549, 2 h, 10 nM”, the activity at 0.01 µM was 54.3%. On the same count and under the same terms, the value for `CNS(=O)(=O)Nc1cccc(Cc2c(CNc3ccn[nH]3)c3ccc(OC(=O)N(C)C)cc3oc2=O)c1F` [Compound 31] was 66.7%; that for `CNS(=O)(=O)Nc1cccc(Cc2c(CNCc3ccco3)c3ccc(OC(=O)N(C)C)cc3oc2=O)c1F` [Compound 56] was 92.9%. With `CNS(=O)(=O)Nc1cccc(Cc2c(CNCC(=O)N(C)C)c3ccc(OC(=O)N(C)C)cc3oc2=O)c1F` [Compound 57], the activity at 0.01 µM (A549, 2 h, 10 nM) stood at 106%. The activity at 10 µM (A549, 2 h, 10 uM) is 7.33%. Regarding `CNS(=O)(=O)Nc1cccc(Cc2c(CNCCN(C)C)c3ccc(OC(=O)N(C)C)cc3oc2=O)c1F` [Compound 58], the activity at 0.01 µM (A549, 2 h, 10 nM) came out at 98.7%. Regarding `CNS(=O)(=O)Nc1cccc(Cc2c(CNCc3cccc(C(F)(F)F)c3)c3ccc(OC(=O)N(C)C)cc3oc2=O)c1F` [Compound 59], the activity at 0.01 µM (A549, 2 h, 10 nM) amounted to 105%. On the same count and under the same terms, next, `CNS(=O)(=O)Nc1cccc(Cc2c(CN3CCN(C(C)C)CC3)c3ccc(OC(=O)N(C)C)cc3oc2=O)c1F` [Compound 62]: 73%; `CNS(=O)(=O)Nc1cccc(Cc2c(CNC(C)c3ccccc3)c3ccc(OC(=O)N(C)C)cc3oc2=O)c1F` (stereo not shown) [Compound 63]: 88%; `CNS(=O)(=O)Nc1cccc(Cc2c(CN3CCN(C4CC4)CC3)c3ccc(OC(=O)N(C)C)cc3oc2=O)c1F` [Compound 64]: 73%. Still for that read-out and setting: next, `CNS(=O)(=O)Nc1cccc(Cc2c(CN3CCN(C(=O)c4ccccc4)CC3)c3ccc(OC(=O)N(C)C)cc3oc2=O)c1F` [Compound 65]: 100%. On the same count and under the same terms, next, `CNS(=O)(=O)Nc1cccc(Cc2c(CNCCC(F)(F)F)c3ccc(OC(=O)N(C)C)cc3oc2=O)c1F` [Compound 66]: 104%. Regarding `CNS(=O)(=O)Nc1cccc(Cc2c(CN3CCN(S(C)(=O)=O)CC3)c3ccc(OC(=O)N(C)C)cc3oc2=O)c1F` [Compound 68], the activity at 0.01 µM (A549, 2 h, 10 nM) worked out at 68.9%. Same read-out and setting: next, `CCN1CCN(Cc2c(Cc3cccc(NS(=O)(=O)NC)c3F)c(=O)oc3cc(OC(=O)N(C)C)ccc23)CC1=O` [Compound 69]: 101%.

In the case of `CNS(=O)(=O)Nc1cccc(Cc2c(CNCCCCO)c3ccc(OC(=O)N(C)C)cc3oc2=O)c1F` [Compound 71], under “A549, 2 h, 10 nM”, the activity at 0.01 µM was determined as 99.4%. Same read-out and setting: the value for `C#CCN(C)Cc1c(Cc2cccc(NS(=O)(=O)NC)c2F)c(=O)oc2cc(OC(=O)N(C)C)ccc12` [Compound 76] was 62.1%. Still for that read-out and setting: next, `CNS(=O)(=O)Nc1cccc(Cc2c(CNc3ccn(C)n3)c3ccc(OC(=O)N(C)C)cc3oc2=O)c1F` [Compound 89]: 83.7%; `CNS(=O)(=O)Nc1cccc(Cc2c(CNc3cn[nH]c3)c3ccc(OC(=O)N(C)C)cc3oc2=O)c1F` [Compound 92]: 93.8%. Same read-out and setting: the value for `CNS(=O)(=O)Nc1cccc(Cc2c(CNc3nccs3)c3ccc(OC(=O)N(C)C)cc3oc2=O)c1F` [Compound 94] was 93.5%. Regarding `CNS(=O)(=O)Nc1cccc(Cc2c(CN(C)c3cccc(Cl)c3)c3ccc(OC(=O)N(C)C)cc3oc2=O)c1F` [Compound 95], where the note is “A549, 2 h, 10 nM”, the activity at 0.01 µM amounted to 80.2%.

For the compound `CNS(=O)(=O)Nc1cccc(Cc2c(CNc3ccnn3C)c3ccc(OC(=O)N(C)C)cc3oc2=O)c1F` [Compound 96], the activity at 0.01 µM (A549, 2 h, 10 nM) is 102%. For the compound `CNS(=O)(=O)Nc1cccc(Cc2c(CN(C)c3ccccc3Cl)c3ccc(OC(=O)N(C)C)cc3oc2=O)c1F` [Compound 99], the activity at 0.01 µM (A549, 2 h, 10 nM) was found to be 98.9%.

Regarding `CNS(=O)(=O)Nc1nccc(Cc2c(CN3CCNCC3)c3ccc(Oc4ncccn4)cc3oc2=O)c1F` [Compound 104], under “A549, 10 nM”, the activity at 0.01 µM was 77.3%.
